These results are taken from PMC7961786, “Magic Peptide: Unique Properties of the LRR11 Peptide in the Activation of Leukotriene Synthesis in Human Neutrophils” (International Journal of Molecular Sciences, 2021).

Entries after “also recorded” stand apart in the source; their conditions may differ.

One data set concerns NeutrAvidin. The data set can be described thus: TSM acoustic biosensor, immobilization of 5′-biotinylated C-CpG on NeutrAvidin surface. The data set is classed as binding. To be noted: Sauerbrey's equation, 1 μM 5′-biotinylated ODN on NeutrAvidin. The source says: Using Sauerbrey’s Equation (2), (2) Δf=−2f02Δm/Aμqρq where f0 is the fundamental resonance frequency (in our case 8 MHz), Δm is the change in mass (in grams) of the adsorbed layer on the crystal surface, A is the effective crystal area (in our case 0.2 cm^2), μq = 2.947 × 10^11 g × cm^−1s^−2 is the shear modulus of elasticity, and ρq = 2.648 g × cm^−3 is the crystal density, surface concentrations of NeutrAvidin, ODN and LRR11 peptide were estimated based on changes of resonance frequency (Figure 4). According to Equation (2), the surface density of molecules, σ (in molecules/cm^2), can be calculated as σ = ΔmNA/(A × Mw), where NA is Avogadro’s number (=6.023 × 10^23 mol^−1), and Mw represents the molecular weight of the corresponding compound (NeutrAvidin: 65 kDa, 5′-biotinylated C-CpG: 7115.4 Da, and LRR11: 3421 Da). Based on this approach, we obtained the following surface concentration values: 1.94 × 10^13 cm^−2 for NeutrAvidin, 3.37 × 10^13 cm^−2 for C-CpG and 2.4 × 10^13 cm^−2 for LRR11. The NeutrAvidin has four binding sites, two of which are available for biotinylated ODN binding. This is due to the fact that the other two sites are inaccessible due to NeutrAvidin chemisorption on the TSM surface. Thus, the number of available binding sites for the ODN is 3.88 × 10^13 cm^−2. […] Therefore, the surface of the TSM transducer is practically completely saturated by C-CpG. […]

Data set [1] deals with human neutrophils (PMNLs). The data set can be described thus: Binding and uptake of FAM-labeled ODNs by neutrophils (flow cytometry). The data set is classed as cell-based. To be noted: 1 µM LRR11, 0.15 µM FPS-ZM1; n = 3; Figure 7. The procedure: Figure 6 The LRR11 peptide affects the binding and uptake of ODNs by neutrophilic granulocytes. PMNLs (1 × 10^6/mL) in HBSS/HEPES were incubated for 20 min at 37 °C in 5% CO2 with 1 µM FAM-labeled ODN, supplemented or not with 1 µM LRR11 peptide. Both the total ODN accumulation (red) and its intracellular constituent (black) were analyzed by flow cytometry. Surface fluorescence was quenched by trypan blue (TB) solution. Values represent the means ± SEM of FAM fluorescence intensities (RFU, relative fluorescence units) (n = 8). ** p < 0.01; *** p < 0.005, **** p < 0.001 for specified data pairs, as indicated by two-way ANOVA followed by Tukey’s multiple comparison test. Mean fluorescence intensities of unstained PMNLs were 62 ± 12 and 39 ± 5.6 without or after TB quenching, respectively.
Figure 7 RAGE antagonist effect on oligonucleotide penetration into neutrophil cells. […] Both total oligonucleotide accumulation (A) and its intracellular constituent (B) were analyzed by flow cytometry. The surface fluorescence was quenched by trypan blue solution. Values represent the means ± SEM of FAM fluorescence intensities (RFU) (n = 3). * p < 0.05; […]; *** p < 0.005 for the pair of data specified, as indicated by two-way ANOVA followed by Tukey’s multiple comparison test. Fluorescence intensities of unstained controls were 62 ± 14 and 49 ± 6 without, or after TB quenching, respectively. […]
For orientation: A flow cytometer gives signals particle by particle.

As for “5′-tcgtcgttttcggcgcgcgccg-3′ (DNA TCGTCGTTTTCGGCGCGCGCCG; chemistry not fully specified) [C-CpG]”, the “surface concentration of C-CpG” value with NeutrAvidin is given as 3.37 × 10^13 cm^−2.

With “QLRKLNLSFNYQKRVSFAHLSLAPSFGSLV [LRR11, 30 amino acid peptide from leucine-rich repeat of TLR9]”, the “effect of LRR11 on FPS-ZM1 inhibition of ODN internalization” value in data set [1] is “overcomes the inhibitory effect of FPS-ZM1; also recorded: the maximum ODN delivery into cells is observed in the presence of LRR11 and a RAGE antagonist”.
